The nature of series [1]: Total iron levels in brain of ICH mice by X-ray fluorescence. The format is in vivo, mouse. The settings on record: 7 days. An excerpt:
In vivo metal distribution imaging analysis by X-ray fluorescence: Seven days following collagenase-induced ICH, mice were euthanized and perfused with trace metal-free PBS. The brains were removed from the mice and flash frozen. Tissue samples were cut into 20 μm-thick sections and deposited onto 4 μm-thick Ultralene® films. The iron and zinc contents of the tissue samples were imaged using X-ray fluorescence microscopy (XFM). X-ray fluorescence spectra were collected using an X-ray excitation energy of 11 keV and a beam size of 9 μm (vertical)×17 μm (horizontal) in 15-μm steps, with an integration time of 7 sec/pixel. The intensity for each metal was quantified by integrating the area under the curve for the respective peak in the XRF spectrum (iron Kα=6405 eV and zinc Kα=8637 eV).
National Institute of Standards and Technology thin film standard reference materials 1832 and 1833 were used to calculate concentrations and to normalize for any differences between the multiple beam time runs required to collect the data. Molar concentrations were determined by dividing the […] values by the product of the volume of X-ray beam on the sample (area×thickness of the sample), the density of tissue (estimated to be 0.9 g/cm^3), and the molecular weight of the element.
The ability of NAC to affect total metal levels in the brain was evaluated. […]

The subject of series [2] is collagenase-induced mouse model of ICH. Kind of series: In vivo collagenase-induced mouse model of ICH (Fluoro-Jade staining, corner task, adhesive tape removal task, hematoma size).
Procedure: In vivo collagenase-induced mouse model of ICH: Male C57BL/6 mice (8 to 10 weeks of age) or mice (10 to 12 weeks of age) were anesthetized with isoflurane (2% to 5%) and placed on a stereotaxic frame. During the procedure, the animal's body temperature was maintained at 37° C. with a homeothermic blanket. 1 mL of collagenase (0.075 IU) was infused into the right striatum at a flow rate of 0.120 μL/min using a Nanomite® syringe pump and a syringe. Relative to the bregma point, the stereotaxic coordinates of the injection were: lateral, −0.20; anteroposterior, 0.62; and dorsoventral, −0.40. In control animals, 1 mL of saline was infused. The treatment group received NAC (75 mg/kg or 300 mg/kg in normal saline, I.P.) once a day for 7 days starting at 2 h after collagenase infusion. For combinatorial studies, NAC (40 mg/kg, I.P.) and PGE 2 (10 μM, ICV) were administered to the mice 2 h after the collagenase injection, and then NAC (40 mg/kg) was administered once daily for 7 days. The control groups received the vehicle (normal saline) alone. The animals were randomized to sham or ICH groups. The identities of the mice that received vehicle or NAC were masked to surgeons who performed the experiments. […] Proper postoperative care was provided until the animals recovered completely.
Behavioral analysis: The corner task assessed integrated sensorimotor function in the stimulation of vibrissae (sensory neglect) and rearing (motor response). Mice were placed between two cardboard pieces that formed a corner with a 30° angle. While maintaining the 30° angle, the boards were gradually moved toward the mouse until the mouse approached the corner, reared upward, and turned 180° to face the open end. The direction (left or right) in which the mouse turned was recorded for each trial. Ten trials were performed for each mouse.
For the sensory neglect task (adhesive tape removal task), adhesive tape was placed on the planter region of the forward paw (right and left) of each mouse. The time from which the tape was applied to when the mouse successfully removed the tape was recorded for each paw. A maximum of 300 s for each paw was allowed.
Fluoro-Jade® B staining: Neurodegeneration of cells was assessed in mice with collagenase-induced ICH using Fluoro-Jade® B staining. 40 μM brain sections were mounted on gelatin-coated slides and dried at room temperature overnight. The sections were immersed in a graded series of alcohol solutions before being immersed in a 0.06% potassium permanganate (KMnO4) solution for 15 min. Sections were washed with water before being immersed in a 0.001% Fluoro-Jade® staining solution with gentle shaking in the dark for 30 min. The sections were then washed with water and dried overnight at room temperature in the dark before being dehydrated and coverslipped with DPX. Fluoro-Jade® B staining was examined within perihematoma or hematoma regions using a fluorescence microscope. Quantification of Fluoro-Jade® B staining was performed using three brain sections (anterior to posterior of hematoma) using Metamorph analysis.
The vehicle or NAC was then administered daily up to 7 days following the ictus. Neuronal loss was determined using a non-specific marker of neurodegeneration, Fluoro-Jade® staining. […] Mouse behavior was assessed using a corner task (spatial neglect) and an adhesive tape removal task (sensory neglect). Mouse behavior was assessed on day 1, 3, and 7 after the induction of ICH.
Series [3] has as its system ALOX5. The experiment in a line: ALOX5 mRNA levels in hemin-treated primary cortical neurons (RT-PCR). The format is cell-based, mouse. The settings on record: NAC 1 mM. The method, then: (§1) Quantitative real-time PCR: Total RNA was prepared using a NucleoSpin® RNA II kit. Duplex real-time PCR reactions were performed with gene expression assays using 6-carboxyfluorescein-labeled probes for ALOX5 (Mm 01182747_m1) and ALOX5AP (Mm 01218551_m1). Expression levels were normalized to β-actin gene expression levels, which were determined with a VIC™-labeled probe. All experiments were performed using a real-time PCR system.
(§2) The abilities of hemin and NAC to induce increases in ALOX5 and ALOX AP mRNA levels were examined. […] Consistent with the protein data (FIG. 17), hemin induced increases in ALOX AP and ALOX5 mRNA levels in a time-dependent manner.

For series [4], the system named is total glutathione. Kind of series: Total glutathione levels in neurons by HPLC. The format is cell-based, mouse. As to conditions: 0.1 or 1.0 mM NAC, presence or absence of hemin. An excerpt:
Cysteine is the rate-limiting precursor for the synthesis of glutathione with γ-glutamylcysteine synthetase and glutathione synthetase. NAC undergoes hydrolysis to liberate cysteine, which is transported by the alanine-serine cysteine (ASC) system. To determine whether NAC-induced protection from heme requires glutathione, glutathione synthesis was inhibited using buthionine sulfoximine (BSO), a selective inhibitor of γ-glutamylcysteine synthetase, the rate limiting step in glutathione synthesis. The necessity of a NAC-induced increase in glutathione, and whether NAC-induced protection could be abrogated were evaluated. A reduction in glutathione levels was measured using HPLC. […] In the presence of hemin, the absolute levels of glutathione were reduced. […] Significance was determined by two-way ANOVA followed by Bonferroni's comparison test, from three independent experiments.

Series [5] concerns ALOX AP. Kind of series: ALOX AP mRNA levels in hemin-treated primary cortical neurons (RT-PCR). The format is cell-based, mouse. As to conditions: NAC 1 mM. The method, then:
as §1, §2

In series [6] the test system is Chac1. The experiment in a line: Chac1 gene expression in ICH mice by quantitative RT-PCR. The format is in vivo, mouse. The settings on record: ICH mice after NAC treatment. An excerpt: Total glutathione levels were unchanged after NAC treatment in ICH mice. […] FIG. 29 illustrates an experimental design to study the effect of NAC on total glutathione levels in the striatum of a collagenase infusion mouse model of ICH. […] FIG. 31 illustrates that ICH-induced ATF4 dependent Chac1 degraded glutathione to 5-oxoproline.

For series [7], the target named is T1, recombinant ALOX5 (Homo sapiens, UniProt P09917).
T1 sequence (P09917 1-674): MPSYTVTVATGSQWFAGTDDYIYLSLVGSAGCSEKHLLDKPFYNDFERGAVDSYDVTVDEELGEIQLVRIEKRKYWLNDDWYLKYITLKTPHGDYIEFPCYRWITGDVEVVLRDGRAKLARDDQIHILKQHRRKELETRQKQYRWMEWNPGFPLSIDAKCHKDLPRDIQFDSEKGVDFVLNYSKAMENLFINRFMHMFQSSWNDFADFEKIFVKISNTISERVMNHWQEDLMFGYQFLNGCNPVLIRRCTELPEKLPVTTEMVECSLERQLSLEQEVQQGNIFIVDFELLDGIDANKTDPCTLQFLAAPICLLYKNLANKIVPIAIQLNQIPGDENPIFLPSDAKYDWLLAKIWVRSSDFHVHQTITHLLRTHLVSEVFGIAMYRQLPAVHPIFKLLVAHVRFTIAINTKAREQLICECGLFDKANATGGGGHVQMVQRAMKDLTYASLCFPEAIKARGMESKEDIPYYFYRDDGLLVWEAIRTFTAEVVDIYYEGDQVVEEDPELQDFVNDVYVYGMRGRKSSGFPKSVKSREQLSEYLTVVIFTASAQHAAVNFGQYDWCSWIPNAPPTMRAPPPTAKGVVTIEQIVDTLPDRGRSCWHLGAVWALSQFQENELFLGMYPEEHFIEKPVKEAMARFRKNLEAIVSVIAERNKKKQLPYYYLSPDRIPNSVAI
The experiment in a line: Lipoxygenase UV/Vis-based IC50 assay with recombinant ALOX5. The format is biochemical. As to conditions: test tube assay. As for the experimental part: Lipoxygenase UV/Vis-based IC50 assay: Inhibition potencies were determined by following the formation of conjugated diene products, 5-HpETE [ε=27000 M^−1 cm^−1 for AA turnover) at 234 nm using a UV/Vis spectrophotometer. All reaction mixtures were 2 mL in volume, and the reaction mixtures were constantly stirred using a magnetic stir bar at room temperature (23° C.). All reactions were carried out in a buffer containing 200 μM ATP and 10 μM AA. The AA concentration of a sample was verified by full turnover with soybean-1 lipoxygenase and quantifying the product concentration. Inhibitors were stored in DMSO at −20° C. Enzymatic reactions were initiated by adding approximately 100 nM-300 nM ammonium sulfate-precipitated wildtype enzyme. IC50 values were obtained by determining the enzymatic rate at a minimum of five inhibitor concentrations, plotting the enzymatic rate against inhibitor concentration, and performing a hyperbolic saturation curve fit. Inhibitor concentrations were assayed in duplicate or triplicate.
Significance was determined by two-way ANOVA and Bonferroni's post hoc test.

In series [8] the test system is ICH model of rats.
Setting [9] is: NAC 40 mg/kg i.p. and/or PGE2 10 μM ICV, days 1, 3, 7.

Consider `CC(=O)N[C@@H](CS)C(=O)O` [NAC, N-acetylcysteine], for which, in series [1], the “Iron levels and iron distribution in brain following ICH” value is “no effect on iron levels or iron distribution”. For the same compound, the “Hematoma size by light microscopy” value in series [2] (75 mg/kg or 300 mg/kg NAC vs control ICH group) is on record as “No significant difference”. For the same compound, in series [2] (300 mg/kg NAC, days 1, 3, 7), the “Adhesive tape removal task (sensory neglect)” value was “improvements in sensory neglect were observed” and the “Corner turn task deficits (spatial neglect)” value is “corrected by administration of 300 mg/kg NAC”. For the same compound, in series [2] (setting [9]), the “Sensory neglect (adhesive tape removal task) behavioral deficits” value is recorded as “no effect” and the “Spatial neglect (corner task) behavioral deficits” value is given as “no effect”. In addition, the “Neuronal degeneration in perihematomal regions (Fluoro-Jade staining)” value in series [2] (NAC 40 mg/kg i.p. daily 7 days and/or dmPGE2 10 μM ICV 2 h post-injury) is “no significant effect”. In series [2] (NAC 300 mg/kg I.P. daily from 2 h post-ICH, day 7), the “Neuronal degeneration in perihematomal regions (Fluoro-Jade staining)” value was “reduced neuronal degeneration in perihematomal regions”. Also, the “Collagenase activity by hematoma size” value in series [2] (NAC 300 mg/kg, 24 h after collagenase injection) is “did not inhibit or affect collagenase activity”. Besides, the “Hemin-induced ALOX5 expression” value in series [3] is “blocked the expression of ALOX5”. For the same compound, in series [4], the “Total glutathione levels in neurons” value is listed as “dose-dependently increased the total glutathione levels”. The “Hemin-induced ALOX AP expression” value in series [5] is on record as “blocked the expression of ALOX AP”. The “ATF4-regulated Chac1” value in series [6] is given as “decreased after NAC treatment”. Further, in series [7], the “Inhibition of ALOX5 activity” value was “did not inhibit ALOX5 activity”. The “Lesion volume and functional recovery” value in series [8] (40 mg/kg or 75 mg/kg, 2 h post-ICH) was “not effective in reducing lesion volume or improving functional recovery”. Further, the “Toxicity of higher doses” value in series [8] (300 mg/kg) is recorded as “caused significant toxicity in rats, including paralytic ileus and/or death”. Also, the “Highest dose tolerated without toxicity” value in series [8] (ICH model) was 40 mg/kg.

The values are drawn from patent US11963939B2, “Use of N-acetylcysteine to treat central nervous system disorders” (Neuronasal, Inc., priority 2017, dated 2024).
